Assay results: US20160193216A1 (Nimbus Iris, Inc., priority 2012, published 2016)

biological target: T1, IRAK4 (Homo sapiens, UniProt Q9NWZ3); test: IRAK-4 activity inhibition assay (Caliper); type: biochemical; conditions: 37 μM ATP, 3.5 nM IRAK4
T1 sequence (Q9NWZ3 1-460): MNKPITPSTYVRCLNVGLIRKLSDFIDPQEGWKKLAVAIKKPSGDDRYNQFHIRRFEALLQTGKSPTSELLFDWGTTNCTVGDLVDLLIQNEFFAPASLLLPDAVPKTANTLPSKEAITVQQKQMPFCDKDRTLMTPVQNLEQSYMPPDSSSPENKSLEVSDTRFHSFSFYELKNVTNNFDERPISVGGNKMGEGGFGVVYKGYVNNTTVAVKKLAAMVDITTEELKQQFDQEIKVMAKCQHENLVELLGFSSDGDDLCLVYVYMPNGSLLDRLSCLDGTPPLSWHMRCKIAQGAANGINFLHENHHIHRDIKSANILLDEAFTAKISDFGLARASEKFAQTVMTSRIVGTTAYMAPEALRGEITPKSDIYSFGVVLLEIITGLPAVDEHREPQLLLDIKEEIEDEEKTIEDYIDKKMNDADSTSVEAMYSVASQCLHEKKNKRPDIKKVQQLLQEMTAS
Protocol: A 1× kinase base buffer was prepared from 50 mM HEPES, pH 7.5 and 0.0015% Brij-35. A stop buffer was prepared from 100 mM HEPES, pH 7.5, 0.015% Brij-35, 0.2% Coating Reagent #3, and 50 mM EDTA.
Test compound was diluted to 50× of the final desired highest inhibitor concentration in reaction by 100% DMSO. 100 μl of this compound dilution was transferred to a well in a 96-well plate.
Test compound was serially diluted by transferring 30 μl to 60 μl of 100% DMSO in the next well and so forth for a total of 10 concentrations. 100 μl of 100% DMSO was added to two empty wells for no compound control and no enzyme control in the same 96-well plate.
A new 96-well plate was marked as intermediate plate. 5 μl of compound serial dilution was transferred from source plate to the corresponding wells of the intermediate plate. 45 μl of 1× kinase base buffer (KB buffer) was added to each well of the intermediate plate. The intermediate plate was placed for 10 min on a shaker.
5 μl of each well was transferred from the 96-well intermediate plate to a 384-well plate in duplicates. […] A2 of the 96-well plate is transferred to A3 and A4 of the 384-well plate, and so on.
IRAK4 and DTT in 1× kinase base buffer was added.
Assay plate already contained 5 μl of compound in 10% DMSO. Added 10 μl of 2.5× enzyme solution to each well of the 384-well assay plate, except no enzyme control wells. […] Added 10 μl of 1× kinase base buffer to no enzyme control wells in the assay plate. Incubated at room temperature for 10 min.
Added 10 μl of 2.5× peptide solution to each well of the 384-well assay plate. […] Incubated at 28° C. for 40 minutes. Added 25 μl of stop buffer to stop reaction. Collected data on Caliper.
Copied conversion % data from Caliper program. Converted conversion % values to percent inhibition values. Percent inhibition=(max−conversion %)/(max−min)*100, where “max” means the conversion % of DMSO control and “min” means the conversion % of no enzyme control.
The compound numbers correspond to the compound numbers in Table 1. […] “NA” stands for “not assayed.”

First: CN[C@H]1CC[C@H](Oc2ncnc3sc4c(c23)[C@@H](CC(=O)NC[C@@H](C)O)CC4)CC1 (stereo in doubt) [Compound I-151, N-[(2R)-2-hydroxypropyl]-2-[(3R)-12-[[4-(methylamino)cyclohexyl]oxy]-7-thia-9,11-diazatricyclo[6.4.0.0[2,6]]dodeca-1(12),2(6),8,10-tetraen-3-yl]acetamide]
Second: CCNC(=O)CC1CCc2sc3ncnc(O[C@H]4CC[C@H](N(C)C)CC4)c3c21 (stereo in doubt) [Compound I-35, 2-[(3S)-12-[[4-(dimethylamino)cyclohexyl]oxy]-7-thia-9,11-diazatricyclo[6.4.0.0[2,6]]dodeca-1(12),2(6),8,10-tetraen-3-yl]-N-ethylacetamide]
The IC50 of the first is higher: 5 to 20 µM for the first, under 5 µM for the second. The second is the more potent here.

`C#CCOC[C@H]1CCc2sc3ncnc(O[C@H]4CC[C@H](N(C)C)CC4)c3c21` [Compound I-49, N,N-dimethyl-4-[[(3S)-3-[(prop-2-yn-1-yloxy)methyl]-7-thia-9,11-diazatricyclo[6.4.0.0[2,6]]dodeca-1(8),2(6),9,11-tetraen-12-yl]oxy]cyclohexan-1-amine] and `COCCC1CCc2sc3ncnc(O[C@H]4CC[C@H](N(C)C)CC4)c3c21` (stereo partly drawn) [Compound I-32, 4-[[3-(2-methoxyethyl)-7-thia-9,11-diazatricyclo[6.4.0.0[2,6]]dodeca-1(8),2(6),9,11-tetraen-12-yl]oxy]-N,N-dimethylcyclohexan-1-amine] cannot be ordered by IC50: under 5 µM for the first, under 5 µM for the second.

First: CS(=O)(=O)N1CCc2sc3ncnc(O[C@H]4CC[C@H](N5CCOCC5)CC4)c3c2C1 [Compound I-187, 12-methanesulfonyl-3-[[4-(morpholin-4-yl)cyclohexyl]oxy]-8-thia-4,6, 12-triazatricyclo[7.4.0.0[2,7]]trideca-1(9),2(7),3,5-tetraene]
Second: COC(=O)N1Cc2sc3ncnc(O[C@H]4CC[C@H](N5CCOCC5)CC4)c3c2C1 [Compound I-199, methyl 12-[[4-(morpholin-4-yl)cyclohexyl]oxy]-7-thia-4,9, 11-triazatricyclo[6.4.0.0[2,6]]dodeca-1(12),2(6),8, 10-tetraene-4-carboxylate]
The IC50 of the first is lower: under 5 µM for the first, 20 to 50 µM for the second.

First: CCNC(=O)CC1CCc2sc3ncnc(N[C@H]4CC[C@H](N(C)C)CC4)c3c21 (stereo partly drawn) [Compound I-23, 2-(12-[[4-(dimethylamino)cyclohexyl]amino]-7-thia-9,11-diazatricyclo[6.4.0.0̂[2,6]]dodeca-1(8),2(6),9,11-tetraen-3-yl)-N-ethylacetamide]
Second: CCNC(=O)C[C@@H]1CCc2sc3ncnc(O[C@H]4CC[C@H](N(C)C)CC4)c3c21 [Compound I-36, 2-[(3S)-12-[[4-(dimethylamino)cyclohexyl]oxy]-7-thia-9,11-diazatricyclo[6.4.0.0[2,6]]dodeca-1(12),2(6),8,10-tetraen-3-yl]-N-ethylacetamide]
The IC50 of the first is lower: 5 to 20 µM for the first, over 50 µM for the second.

First: CCC(O)[C@H]1CCc2sc3ncnc(O[C@H]4CC[C@H](N(C)C)CC4)c3c21 (stereo partly drawn) [Compound I-50, (S)-1-((S)-4-(((1r,4S)-4-(dimethylamino)cyclohexyl)oxy)-6,7-dihydro-5H-cyclopenta[4,5]thieno[2,3-d]pyrimidin-5-yl)propan-1-ol]
Second: CC[C@H](O)C[C@H]1CCc2sc3ncnc(O[C@H]4CC[C@H](N(C)C)CC4)c3c21 [Compound I-107, (2S)-1-[(3R)-12-[[4-(dimethylamino)cyclohexyl]oxy]-7-thia-9,11-diazatricyclo[6.4.0.0[2,6]]dodeca-1(8),2(6),9,11-tetraen-3-yl]butan-2-ol]
The IC50 of the first is higher: 5 to 20 µM for the first, under 5 µM for the second. The second is the more potent here.

`C=C[C@@H](O)C[C@H]1CCc2sc3ncnc(O[C@H]4CC[C@@](N)(CC)CC4)c3c21` [Compound I-126, (2S)-1-[(3R)-12-[(4-amino-4-ethylcyclohexyl)oxy]-7-thia-9,11-diazatricyclo[6.4.0.0[2,6]]dodeca-1(8),2(6),9,11-tetraen-3-yl]but-3-en-2-ol] and `CN[C@]1(C)CC[C@@H](Oc2ncnc3sc4c(c23)[C@@H](CC(N)=O)CC4)CC1` [Compound I-156, 2-[(3R)-12-[[4-methyl-4-(methylamino)cyclohexyl]oxy]-7-thia-9,11-diazatricyclo[6.4.0.0[2,6]]dodeca-1(8),2(6),9,11-tetraen-3-yl]acetamide] cannot be ordered by IC50: under 5 µM for the first, under 5 µM for the second.

`COCCN(C)[C@H]1CC[C@H](Oc2ncnc3sc4c(c23)[C@@H](CC(N)=O)CC4)CC1` [Compound I-130, 2-((R)-4-(((1r,4R)-4-((2-methoxyethyl)(methyl)amino)cyclohexyl)oxy)-6,7-dihydro-5H-cyclopenta[4,5]thieno[2,3-d]pyrimidin-5-yl)acetamide] and `CN(C)[C@H]1CC[C@H](Oc2ncnc3sc4c(c23)[C@@H](CCC(N)=O)CCC4)CC1` [Compound I-163, 3-((R)-4-(((1r,4R)-4-(dimethylamino)cyclohexyl)oxy)-5,6,7,8-tetrahydrobenzo[4,5]thieno[2,3-d]pyrimidin-5-yl)propanamide] cannot be ordered by IC50: under 5 µM for the first, under 5 µM for the second.

First: CC(=O)N1CCc2sc3ncnc(N[C@H]4CC[C@H](N5CCOCC5)CC4)c3c2C1 [Compound I-172, 1-(3-[[4-(morpholin-4-yl)cyclohexyl]amino]-8-thia-4,6,12-triazatricyclo[7.4.0.0-[2,7]]trideca-1(9),2(7),3,5-tetraen-12-yl)ethan-1-one]
Second: OC[C@H]1CCc2sc3ncnc(N[C@H]4CC[C@H](N5CCOCC5)CC4)c3c2C1 [Compound I-210, [(12S)-3-[[4-(morpholin-4-yl)cyclohexyl]amino]-8-thia-4,6-diazatricyclo[7.4.0.0[2,7]]trideca-2,4,6-trien-12-yl]methanol]
The IC50 of the first is higher: 5 to 20 µM for the first, under 5 µM for the second. The second is the more potent here.

Going from `CN(C)[C@H]1CC[C@H](Nc2ncnc3sc4c(c23)C(CO)CC4)CC1` (stereo partly drawn) [Compound I-3] to `CN(C)[C@H]1CC[C@H](Nc2ncnc3sc4c(c23)C(CC(=O)N2CC[C@H](O)C2)CC4)CC1` (stereo partly drawn) [Compound I-15, 2-(4-(((1r,4S)-4-(dimethylamino)cyclohexyl)amino)-6,7-dihydro-5H-cyclopenta[4,5]thieno[2,3-d]pyrimidin-5-yl)-1-((S)-3-hydroxypyrrolidin-1-yl)ethanone], the IC50 rises from under 5 µM to over 50 µM.

`c1nc(O[C@H]2CC[C@H](N3CCOCC3)CC2)c2c3c(sc2n1)CNC3` [Compound I-192, 12-[[4-(morpholin-4-yl)cyclohexyl]oxy]-7-thia-4,9, 11-triazatricyclo[6.4.0.0[2,6]]dodeca-1(12),2(6),8, 10-tetraene] and `OCC[C@@H]1CCc2sc3ncnc(O[C@H]4CC[C@H](N5CCOCC5)CC4)c3c2C1` [Compound I-145, 2-((R)-4-(((1r,4R)-4-morpholinocyclohexyl)oxy)-5,6,7,8-tetrahydrobenzo[4,5]thieno[2,3-d]pyrimidin-6-yl)ethanol] cannot be ordered by IC50: under 5 µM for the first, under 5 µM for the second.

`CN(C)[C@H]1CC[C@H](Oc2ncnc3sc4c(c23)CC(CC(N)=O)OC4)CC1` (stereo partly drawn) [Compound I-221, 2-(3-[[4-(dimethylamino)cyclohexyl]oxy]-11-oxa-8-thia-4,6-diazatricyclo[7.4.0.0[2,7]]trideca-1(9),2(7),3,5-tetraen-12-yl)acetamide] and `CN(C)[C@H]1CC[C@H](Oc2ncnc3sc4c(c23)[C@@H](C[C@H](O)C(F)(F)F)CC4)CC1` [Compound I-70, (S)-3-((R)-4-(((1r,4R)-4-(dimethylamino)cyclohexyl)oxy)-6,7-dihydro-5H-cyclopenta[4,5]thieno[2,3-d]pyrimidin-5-yl)-1,1,1-trifluoropropan-2-ol] cannot be ordered by IC50: under 5 µM for the first, under 5 µM for the second.

First: CN[C@H]1CC[C@H](Oc2ncnc3sc4c(c23)[C@@H](C[C@H](C#N)OC)CC4)CC1 [Compound I-81, (2R)-2-methoxy-3-[(3R)-12-[[4-(methylamino)cyclohexyl]oxy]-7-thia-9,11-diazatricyclo[6.4.0.0[2,6]]dodeca-1(8),2(6),9,11-tetraen-3-yl]propanenitrile]
Second: CN(C)[C@H]1CC[C@H](Oc2ncnc3sc4c(c23)[C@@H](CCc2ncco2)CC4)CC1 [Compound I-63, N,N-dimethyl-4-[[(3S)-3-[2-(1,3-oxazol-2-yl)ethyl]-7-thia-9,11-diazatricyclo[6.4.0.0[2,6]]dodeca-1(8),2(6),9,11-tetraen-12-yl]oxy]cyclohexan-1-amine]
The IC50 of the first is higher: 5 to 20 µM for the first, under 5 µM for the second. The second is the more potent here.
